What was measured:
Type in all cases: cell-based, human
primary hPTECs [1] = test: Western blotting of extracellular matrix proteins; details: 48 h
Description: Primary hPTECs were cultured in low (5 mM) glucose±TGFβ1 (10 ng/mL)±danegaptide (100 nM) for 48 h. In panel A, expression of the ECM proteins collagen I (Col1), collagen IV (Col4), fibronectin (Fibro), and Laminin (panel B) were assessed via western blotting. […] Danegaptide partially reversed the TGFβ1 evoked change in Integrin Linked Kinase 1 (ILK1; ▴▴▴P<0.001) but had negligible effect on Matrix Metalloproteinase 3 (MMP3). All bars correspond mean±SEM, (n=3) and representative blots are shown with expression normalised by re-probing for α-tubulin as a loading control.
(§1) To determine if danegaptide can negate TGFβ1-mediated changes in adherens and tight junction proteins, hPTECs were incubated with TGFβ1 (10 ng/mL)±danegaptide (100 nM) for 48 h and expression of candidate proteins assessed by Western blotting. Preparation of cytosolic protein from HK2 and HPTEC cells, their separation by SDS-gel electrophoresis and transfer onto Immobilon-FI PVDF membranes have been described previously (Price, G. W.; Chadjichristos, C. E.; Kavvadas, P.; Tang, S. C. W.; Yiu, W. H.; Green, C. R.; Potter, J. A.; Siamantouras, E.; Squires, P. E.; Hills, C. E. Blocking Connexin-43 mediated hemichannel activity protects against early tubular injury in experimental chronic kidney disease. Cell Commun. Signal. 2020, 18). Membranes were blocked using Odyssey blocking buffer (LI-COR), then probed overnight with antibodies against E-cadherin (1:1000), N-cadherin (1:1000), claudin-2 (1:500) and ZO-1 (1:1000), Col I (1:1000), Col IV (1:2000), Fibronectin (1:4000), Laminin (1:500), ILK1 (1:500), beta-catenin (1:2000), Vimentin (1:500), MMP3 (1:500). Bands were visualised using an OdysseyFC and semi-quantified using ImageStudio (v5.2, LI-COR). Additionally, transepithelial electrical resistance (TER) was measured as a functional measure of epithelial cell-cell coupling and paracellular permeability.
To examine the effect of danegaptide on TGFβ1-evoked changes in expression of ECM proteins, hPTEC cells were cultured in low (5 mM) glucose for 48 h, serum starved overnight and treated with TGFβ1 (10 ng/mL)±danegaptide (100 nM) for 48 h. Expression of the ECM proteins collagen I, collagen IV, fibronectin, Laminin, Integrin Linked Kinase 1, and Matrix Metalloproteinase 3 were assessed via western blotting.

primary hPTECs [2] = test: Western blotting of adherens and tight junction proteins; details: 48 h
Description: (§2) Primary hPTECs were cultured in low (5 mM) glucose±TGFβ1 (10 ng/mL)±danegaptide (100 nM) for 48 h. Expression of E-cadherin (ECAD), N-cadherin (NCAD) and vimentin (panel A), and Claudin-2 and Zonula Occludens (ZO-1) and b-catenin (panel B) were assessed via western blotting. TGFβ1 reduced E-cadherin, Claudin-2 and ZO-1 expression and increased N-cadherin and vimentin expression (**P<0.01, ***P<0.001; mean±SEM, n=3). Effects were partially or completely reversed by danegaptide (100 nM; ▴P<0.05 and ▴▴▴P<0.001; mean±SEM, n=3). Representative blots for each protein are shown, with expression normalised by re-probing for α-tubulin as a loading control. In panel C, transepithelial electrical resistance (TER) assessed the consequence of altered adherens & tight-junction protein expression on epithelial integrity. HK2 cells were cultured in low (5 mM) glucose on transwell inserts and transepithelial resistance measured.
as §1

HK2 cells [3] = test: Transepithelial electrical resistance (TER); details: HK2 cells on transwell inserts
Description: as §2
To determine if danegaptide can negate TGFβ1-mediated changes in adherens and tight junction proteins, hPTECs were incubated with TGFβ1 (10 ng/mL)±danegaptide (100 nM) for 48 h and expression of candidate proteins assessed by Western blotting. […] Bands were visualised using an OdysseyFC and semi-quantified using ImageStudio (v5.2, LI-COR). […]

HK2 cells [4] = test: MTT assay (cell viability); details: 48 h
Description: HK2 cells were cultured in low glucose (5 mM) for 48 h, prior to being serum-starved overnight and subsequently treated with TGFβ1 (10 ng/mL)±danegaptide (50 nM-1 μM) for 48 h (FIG. 1A, n=3).
The 3-(4,5-Dimethylthiazol-2-yl)-2,5-diphenyltetrazolium bromide (MTT) assay was performed as known in the art to assess the cytotoxic effects of danegaptide on cell proliferation. HK2 cells were seeded in 96-well plates and cultured in low glucose DMEM/F12 (5 mM) for 48 h, prior to overnight serum-starvation, then subsequently stimulated for 48 h with TGFβ1 (10 ng/ml)±danegaptide (50-1000 nM). Colourmetric measurement of formazan production corresponds to the number of viable cells.

[5] = TGFβ1 10 ng/mL + danegaptide 100 nM

## TGFβ1: Recombinant hTGFβ1 (Sigma); pro-fibrotic cytokine used to stimulate the cells [reference compound]
Primary hPTECs [1]; TGFβ1 10 ng/mL alone
  Integrin Linked Kinase 1 (ILK1) expression, compared to control: 378.9±16.8%
  Matrix Metalloproteinase 3 (MMP3) expression, compared to control: 185.3±19.6%
  collagen I expression, compared to control: 334.6±30.14%
  collagen IV expression, compared to control: 354.5±16.9%
  fibronectin expression, compared to control: 301.7±50.4%
  laminin expression, compared to control: 324.8±36.4%
Primary hPTECs [2]; TGFβ1 10 ng/mL alone
  Claudin-2 expression, of control: 44.5±5%
  E-cadherin (ECAD) expression, of control: 33.3±3.3%
  N-cadherin (NCAD) expression, of control: 224.4±29.6%
  ZO-1 expression, of control: 27.8±11.3%
  vimentin expression, of control: 212.9±13%
Primary hPTECs [2]; TGFβ1 alone
  Beta-catenin expression, of control: 149.2±11.2%
HK2 cells [3]; TGFβ1 10 ng/mL alone
  transepithelial resistance: 10±1.53 Ω·cm2
HK2 cells [4]; TGFβ1 10 ng/mL alone
  cell viability (MTT) as compared to control: 101.9±11.7%

## NCC(=O)N1C[C@H](NC(=O)c2ccccc2)C[C@H]1C(=O)O [danegaptide, (2S,4R)-1-(2-aminoacetyl)-4-benzamidopyrrolidine2-carboxylic acid]
Primary hPTECs [1]; [5]
  Integrin Linked Kinase 1 (ILK1) expression, compared to control: 251.8±33%
  Matrix Metalloproteinase 3 (MMP3) expression, compared to control: 147.1±12.2%
  collagen I expression, compared to control: 180.7±27.3%
  collagen IV expression, compared to control: 164.2±6.9%
  fibronectin expression, compared to control: 161.3±4%
  laminin expression, compared to control: 149±20.4%
Primary hPTECs [2]; [5]
  Claudin-2 expression, of control: 74.6±5%
  E-cadherin (ECAD) expression, of control: 89±7.6%
  N-cadherin (NCAD) expression, of control: 161.9±27.4%
  ZO-1 expression, of control: 52.8±5.4%
  vimentin expression, of control: 147.3±8.8%
Primary hPTECs [2]; TGFβ1+danegaptide 100 nM
  Beta-catenin expression, of control: 151.6±16.8%
HK2 cells [3]; [5]
  transepithelial resistance: 36±2.08 Ω·cm2
HK2 cells [4]; TGFβ1 10 ng/mL + danegaptide 50 nM
  cell viability (MTT) as compared to control: 104.1±2.2%
HK2 cells [4]; [5]
  cell viability (MTT) as compared to control: 93.4±1.6%
HK2 cells [4]; TGFβ1 10 ng/mL + danegaptide 1 μM
  cell viability (MTT) as compared to control: 89.3±3.7%
HK2 cells [4]; danegaptide alone 50 nM
  cell viability (MTT) as compared to control: 95.2±7%
HK2 cells [4]; danegaptide alone 100 nM
  cell viability (MTT) as compared to control: 103±5.7%
HK2 cells [4]; danegaptide alone 1 μM
  cell viability (MTT) as compared to control: 96.6±5.3%
